Experimental data taken from patent publication US12660819B2, “Herbicidal derivatives” (SYNGENTA CROP PROTECTION AG, priority 2020, dated 2026).

Experiments:
Format in all cases: in vivo
Zea mays (ZEAMX) [1] = assay: Pre-emergence Test (glasshouse, percentage damage to the plant); conditions: 1000 g/ha unless otherwise stated, five-point scale
[2] = test system: Ipomoea hederacea (IPOHE); assay: as above; conditions: 1000 g/ha unless otherwise stated, five-point scale
[3] = test system: Amaranthus retoflexus (AMARE); assay: as above; conditions: 1000 g/ha unless otherwise stated, five-point scale
[4] = test system: Ipomoea hederacea (IPOHE); assay: Post-emergence Test (glasshouse, percentage damage to the plant); conditions: post-emergence spray, 1000 g/ha unless otherwise stated, evaluated after 13 days
Summary of the method: (§1)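 After sowing in standard soil, pots were kept at 24/16 °C (day/night), 14 h light and 65% humidity. They were sprayed at 1000 g/ha unless otherwise stated, watered twice daily, and assessed for percentage damage at 13 days on a 1–5 scale.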

[5] = test system: Abutilon theophrasti (ABUTH); assay: as above; conditions: post-emergence spray, 1000 g/ha unless otherwise stated, evaluated after 13 days
Summary of the method: (§2)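 Seeds are sown in standard soil under controlled glasshouse conditions. The pots are then sprayed at 1000 g/ha, unless otherwise stated, with compound in acetone/water (50:50) containing 0.5% Tween 20. After 13 days further growth, percentage plant damage is scored from 1 (0-20%) to 5 (81-100%).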

[6] = test system: Echinochloa crus-galli (ECHCG); assay: as above; conditions: post-emergence spray, 1000 g/ha unless otherwise stated, evaluated after 13 days
Summary of the method: as §2

[7] = test system: Amaranthus retoflexus (AMARE); assay: as above; conditions: post-emergence spray, 1000 g/ha unless otherwise stated, evaluated after 13 days
Summary of the method: as §2

Zea mays (ZEAMX) [8] = assay: as above; conditions: post-emergence spray, 1000 g/ha unless otherwise stated, evaluated after 13 days
Summary of the method: as §1

Setaria faberi (SETFA) [9] = assay: as above; conditions: post-emergence spray, 1000 g/ha unless otherwise stated, evaluated after 13 days
Summary of the method: as §1

[10] = test system: Echinochloa crus-galli (ECHCG); assay: Pre-emergence Test (glasshouse, percentage damage to the plant); conditions: 1000 g/ha unless otherwise stated, five-point scale
Setaria faberi (SETFA) [11] = assay: as above; conditions: 1000 g/ha unless otherwise stated, five-point scale
[12] = test system: Abutilon theophrasti (ABUTH); assay: as above; conditions: 1000 g/ha unless otherwise stated, five-point scale

| SMILES | percentage damage to the plant, ZEAMX (Zea mays (ZEAMX) [1]) | percentage damage to the plant, IPOHE [2] | percentage damage to the plant, AMARE [3] | Post-emergence Test IPOHE, percentage damage to the plant (five-point scale) [4] | Post-emergence Test ABUTH, percentage damage to the plant (five-point scale) [5] | Post-emergence Test ECHCG, percentage damage to the plant (five-point scale) [6] | Post-emergence Test AMARE, percentage damage to the plant (five-point scale) [7] | Post-emergence Test ZEAMX, percentage damage to the plant (five-point scale) (Zea mays (ZEAMX) [8]) | Post-emergence Test SETFA, percentage damage to the plant (five-point scale) (Setaria faberi (SETFA) [9]) | percentage damage to the plant, ECHCG [10] | percentage damage to the plant, SETFA (Setaria faberi (SETFA) [11]) | percentage damage to the plant, ABUTH [12] |
| --- | --- | --- | --- | --- | --- | --- | --- | --- | --- | --- | --- | --- |
| CCn1c(C)c(-c2ccc(C#N)cc2)c(=O)c(C(=O)O)c1-c1ccnc(Cl)c1 [Compound 142, 2-(2-chloro-4-pyridyl)-5-(4-cyanophenyl)-1-ethyl-6-methyl-4-oxo-pyridine-3-carboxylic acid] | 0 | 0 | 0 | 2 (2=21-40%) | 1 (1=0-20%) | 3 (3=41-60%) | 0 | 1 (1=0-20%) | 2 (2=21-40%) | 1 (1=0-20%) | 1 (1=0-20%) | 0 |
| CCn1c(C)c(-c2ccccc2)c(=O)c(C(=O)O)c1-c1ccc(F)cc1F [Compound 135, 2-(2,4-difluorophenyl)-1-ethyl-6-methyl-4-oxo-5-phenyl-pyridine-3-carboxylic acid] | 0 | 3 (3=41-60%) | 1 (1=0-20%) | 1 (1=0-20%) | 1 (1=0-20%) | 0 | 2 (2=21-40%) | 0 | 0 | 2 (2=21-40%) | 5 (5=81-100%) | 3 (3=41-60%) |
| CCOc1cc(-c2c(C)n(CC)c(-c3ccc(Cl)c(Cl)c3)c(C(=O)O)c2=O)ccc1C(F)(F)F [Compound 65, 2-(3,4-dichlorophenyl)-5-[3-ethoxy-4-(trifluoromethyl)phenyl]-1-ethyl-6-methyl-4-oxo-pyridine-3-carboxylic acid] | 1 (1=0-20%) | 1 (1=0-20%) | 1 (1=0-20%) | 1 (1=0-20%) | 1 (1=0-20%) | 1 (1=0-20%) | 1 (1=0-20%) | 1 (1=0-20%) | 1 (1=0-20%) | 1 (1=0-20%) | 1 (1=0-20%) | 1 (1=0-20%) |
| CCn1c(C)c(-c2ccc(Cl)cc2)c(=O)c(C(=O)O)c1-c1ccc(Cl)cc1 [Compound 138, 2,5-bis(4-chlorophenyl)-1-ethyl-6-methyl-4-oxo-pyridine-3-carboxylic acid] | 1 (1=0-20%) | 1 (1=0-20%) | 5 (5=81-100%) | 1 (1=0-20%) | 3 (3=41-60%) | 2 (2=21-40%) | 1 (1=0-20%) | 0 | 3 (3=41-60%) | 3 (3=41-60%) | 5 (5=81-100%) | 3 (3=41-60%) |
| CCn1c(C)c(-c2ccc(C(C)=O)cc2)c(=O)c(C(=O)O)c1-c1ccc(Cl)c(Cl)c1 [Compound 90, 5-(4-acetylphenyl)-2-(3,4-dichlorophenyl)-1-ethyl-6-methyl-4-oxo-pyridine-3-carboxylic acid] | 1 (1=0-20%) | 1 (1=0-20%) | 1 (1=0-20%) | 2 (2=21-40%) | 1 (1=0-20%) | 1 (1=0-20%) | 1 (1=0-20%) | 1 (1=0-20%) | 2 (2=21-40%) | 1 (1=0-20%) | 3 (3=41-60%) | 1 (1=0-20%) |
| CCOc1cc(-c2c(C)n(CC)c(-c3ccc(Cl)c(Cl)c3)c(C(=O)O)c2=O)cc(C(F)(F)F)c1 [Compound 88, 2-(3,4-dichlorophenyl)-5-[3-ethoxy-5-(trifluoromethyl)phenyl]-1-ethyl-6-methyl-4-oxo-pyridine-3-carboxylic acid] | 1 (1=0-20%) | 1 (1=0-20%) | 1 (1=0-20%) | 1 (1=0-20%) | 2 (2=21-40%) | 2 (2=21-40%) | 2 (2=21-40%) | 1 (1=0-20%) | 2 (2=21-40%) | 1 (1=0-20%) | 4 (4=61-80%) | 1 (1=0-20%) |
| CCn1c(C)c(-c2cc(F)c(OC)c(Cl)c2)c(=O)c(C(=O)O)c1-c1ccc(Cl)c(Cl)c1 [Compound 75, 5-(3-chloro-5-fluoro-4-methoxy-phenyl)-2-(3,4-dichlorophenyl)-1-ethyl-6-methyl-4-oxo-pyridine-3-carboxylic acid] | 1 (1=0-20%) | 1 (1=0-20%) | 1 (1=0-20%) | 2 (2=21-40%) | 2 (2=21-40%) | 1 (1=0-20%) | 1 (1=0-20%) | 1 (1=0-20%) | 1 (1=0-20%) | 1 (1=0-20%) | 1 (1=0-20%) | 1 (1=0-20%) |
| CCn1c(C)c(-c2ccc(Cl)cc2C)c(=O)c(C(=O)O)c1-c1ccc(Cl)c(Cl)c1 [Compound 156, 5-(4-chloro-2-methyl-phenyl)-2-(3,4-dichlorophenyl)-1-ethyl-6-methyl-4-oxo-pyridine-3-carboxylic acid] | 0 | 1 (1=0-20%) | 1 (1=0-20%) | 4 (4=61-80%) | 4 (4=61-80%) | 4 (4=61-80%) | 3 (3=41-60%) | 4 (4=61-80%) | 4 (4=61-80%) | 5 (5=81-100%) | 4 (4=61-80%) | 2 (2=21-40%) |
